Patent publication US20240059671A1, “TYROSINE KINASE 2 (TYK2) DEGRADATION COMPOUNDS AND METHODS OF USE” (CULLGEN (SHANGHAI), INC., priority 2020, published 2024)
Entries after “also recorded” stand apart in the source; their conditions may differ.

Tests used:
Assay type in all cases: cell-based
JAK1, JAK2, and JAK3 = assay: Immunoblot of JAK1/2/3 protein levels in MOLT-4 cells (selectivity of TYK2 reduction); conditions: MOLT-4 cells, 0.04, 0.2, 1, and 5 μM, 24 hours
Experimental: MOLT-4 cells were treated with CPD-038, CPD-039, and CPD-040 at 0.04, 0.2, 1, and 5 μM concentrations for 24 hours.
Rabbit anti-JAK1antibody (3344S), anti-JAK2 antibody (3230S), anti-JAK3 antibody (8827S), anti-TYK2 antibody (14193S), anti-STAT1 antibody (9167S), anti-STAT3 antibody (9139S), anti-phospho-STAT1 (Tyr701) antibody ([…]), anti-phospho-STAT3 (Tyr705) antibody (9145S), were purchased from Cell Signaling Technology; anti-β-actin antibody (ab8226) was from Abeam; HRP-conjugated anti-α-Tubulin (GNI4310-AT) antibody was purchased from GNI. Media and other cell culture reagents were purchased from Thermo Fisher.
Cultured cells were washed with cold PBS once and lysed in cold RIPA buffer supplemented with protease inhibitors and phosphatase inhibitors (Beyotime Biotechnology). The solutions were then incubated at 4° C. for 30 minutes with gentle agitation to fully lyse cells. Cell lysates were centrifuged at 13,000 rpm for 10 minutes at 4° C. and pellets were discarded. Total protein concentrations in the lysates were determined by BCA assays (Beyotime Biotechnology). Cell lysates were mixed with Laemmli loading buffer to 1× and heated at 99° C. for 5 min. Proteins were resolved on SDS-PAGE and visualized by chemiluminescence. Images were taken by a ChemiDoc MP Imaging system (Bio-Rad). Protein bands were quantitated using the accompanied software provided by Bio-Rad.

TYK2 [1] = target: T1, TYK2 (Homo sapiens, UniProt P29597); assay: TYK2 protein degradation in MOLT-4 cells by immunoblotting; design: endogenous in cells; host or cells: MOLT-4; conditions: 24 hours; for TYK2 Degradation (0.5 μM) / TYK2 Degradation (5 μM): MOLT-4 cells; for Reduction of TYK2 protein levels over a dose range (FIG. 1): MOLT-4 cells, 0.04, 0.2, 1, and 5 μM
How it was run: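 MOLT-4 cells were exposed to compounds at 0.5 and 5 μM for 24 h, then lysed in RIPA buffer with protease and phosphatase inhibitors. TYK2 was detected by SDS-PAGE immunoblot with chemiluminescence, and band densitometry gave percent degradation.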

TYK2 [2] = target: T1, TYK2; assay: TYK2 protein degradation in NOMO-1 cells by immunoblotting; design: endogenous in cells; conditions: NOMO-1 cells
How it was run: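 NOMO-1 cells in RPMI 1640 with 10% FBS were exposed to compound at 0.1–1000 nM for 16 hours. TYK2 levels in RIPA lysates were measured by SDS-PAGE immunoblot with chemiluminescent detection and band densitometry.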

T1 sequence (P29597 whole entry): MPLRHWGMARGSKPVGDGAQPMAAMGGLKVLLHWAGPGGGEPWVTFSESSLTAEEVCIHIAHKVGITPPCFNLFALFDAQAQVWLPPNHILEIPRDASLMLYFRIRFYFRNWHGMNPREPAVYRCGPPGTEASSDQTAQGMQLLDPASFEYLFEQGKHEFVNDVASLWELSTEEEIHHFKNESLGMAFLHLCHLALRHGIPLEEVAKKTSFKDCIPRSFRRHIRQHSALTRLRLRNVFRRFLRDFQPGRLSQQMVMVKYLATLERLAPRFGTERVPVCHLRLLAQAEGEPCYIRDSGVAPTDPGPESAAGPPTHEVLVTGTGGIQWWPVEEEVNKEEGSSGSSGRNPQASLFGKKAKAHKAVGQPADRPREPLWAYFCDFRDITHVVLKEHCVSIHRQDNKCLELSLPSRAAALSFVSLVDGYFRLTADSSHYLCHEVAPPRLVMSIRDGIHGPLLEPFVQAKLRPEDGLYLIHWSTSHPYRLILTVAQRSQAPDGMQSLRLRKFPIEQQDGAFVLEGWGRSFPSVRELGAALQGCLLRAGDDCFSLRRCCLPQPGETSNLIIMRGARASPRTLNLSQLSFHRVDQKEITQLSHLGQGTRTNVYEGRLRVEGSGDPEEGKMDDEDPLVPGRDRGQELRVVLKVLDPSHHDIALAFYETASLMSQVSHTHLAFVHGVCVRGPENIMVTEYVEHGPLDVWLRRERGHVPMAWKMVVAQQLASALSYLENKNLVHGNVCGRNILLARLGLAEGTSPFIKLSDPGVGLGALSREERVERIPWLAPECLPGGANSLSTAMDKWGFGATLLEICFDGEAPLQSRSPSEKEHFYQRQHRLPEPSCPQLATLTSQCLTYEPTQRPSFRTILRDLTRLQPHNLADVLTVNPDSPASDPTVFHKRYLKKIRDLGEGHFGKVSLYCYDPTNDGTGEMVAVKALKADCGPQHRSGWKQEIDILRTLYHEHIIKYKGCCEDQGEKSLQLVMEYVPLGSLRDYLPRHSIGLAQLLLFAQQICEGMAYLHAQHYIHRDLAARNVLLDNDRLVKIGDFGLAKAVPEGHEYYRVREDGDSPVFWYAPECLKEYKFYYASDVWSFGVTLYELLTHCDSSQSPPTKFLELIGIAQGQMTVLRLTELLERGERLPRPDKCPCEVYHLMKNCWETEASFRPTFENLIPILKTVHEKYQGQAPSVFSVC

TYK2 Degradation (NOMO-1, 100 nM) (TYK2 [2])	TYK2 Degradation (NOMO-1, 10 nM) (TYK2 [2])	Compound	other results
		CNC(=O)c1nnc(NC(=O)CNC(=O)CCCCCCC(=O)N[C@H](C(=O)N2C[C@H](O)C[C@H]2C(=O)NCc2ccc(-c3scnc3C)cc2)C(C)(C)C)cc1Nc1cccc(-c2ncn(C)n2)c1OC [CPD-038, N1-((S)-1-((2S,4R)-4-hydroxy-2-((4-(4-methylthiazol-5-yl)benzyl)carbamoyl)pyrrolidin-1-yl)-3,3-dimethyl-1-oxobutan-2-yl)-N8-(2-((5-((2-methoxy-3-(1-methyl-1H-1,2,4-triazol-3-yl)phenyl)amino)-6-(methylcarbamoyl)pyridazin-3-yl)amino)-2-oxoethyl)octanediamide]	Selectivity of TYK2 protein reduction over JAK1, JAK2, and JAK3 (FIG. 1) (JAK1, JAK2, and JAK3): very selective at the reduction protein levels of TYK2 over JAK1, JAK2, and JAK3; also recorded: highly selective at the degradation of TYK2 over JAKT/2/3 proteins; TYK2 Degradation (0.5 μM) (TYK2 [1]): 50%; TYK2 Degradation (5 μM) (TYK2 [1]): 90%; Reduction of TYK2 protein levels over a dose range (FIG. 1) (TYK2 [1]): concentration-dependently reduced the TYK2 proteins levels; also recorded: reduce TYK2 protein levels in a concentration-dependent manner
		CNC(=O)c1nnc(NC(=O)CNC(=O)CCCCCCCC(=O)N[C@H](C(=O)N2C[C@H](O)C[C@H]2C(=O)NCc2ccc(-c3scnc3C)cc2)C(C)(C)C)cc1Nc1cccc(-c2ncn(C)n2)c1OC [CPD-039, N1-((S)-1-((2S,4R)-4-hydroxy-2-((4-(4-methylthiazol-5-yl)benzyl)carbamoyl)pyrrolidin-1-yl)-3,3-dimethyl-1-oxobutan-2-yl)-N9-(2-((5-((2-methoxy-3-(1-methyl-1H-1,2,4-triazol-3-yl)phenyl)amino)-6-(methylcarbamoyl)pyridazin-3-yl)amino)-2-oxoethyl)nonanediamide]	Selectivity of TYK2 protein reduction over JAK1, JAK2, and JAK3 (FIG. 1) (JAK1, JAK2, and JAK3): very selective at the reduction protein levels of TYK2 over JAK1, JAK2, and JAK3; also recorded: highly selective at the degradation of TYK2 over JAKT/2/3 proteins; TYK2 Degradation (0.5 μM) (TYK2 [1]): 60%; TYK2 Degradation (5 μM) (TYK2 [1]): 90%; Reduction of TYK2 protein levels over a dose range (FIG. 1) (TYK2 [1]): concentration-dependently reduced the TYK2 proteins levels; also recorded: reduce TYK2 protein levels in a concentration-dependent manner
C (C: ≤20% TYK2 degradation)		CNC(=O)c1nnc(Nc2ccc(C(=O)NCCCCCCCNc3ccc4c(c3)C(=O)N(C3CCC(=O)NC3=O)C4=O)cn2)cc1Nc1cccc(-c2ncn(C)n2)c1OC (stereo not drawn) [CPD-166, 6-((5-((7-((2-(2,6-dioxopiperidin-3-yl)-1,3-dioxoisoindolin-5-yl)amino)heptyl)carbamoyl)pyridin-2-yl)amino)-4-((2-methoxy-3-(1-methyl-1H-1,2,4-triazol-3-yl)phenyl)amino)-N-methylpyridazine-3-carboxamide]	
C (C: ≤20% TYK2 degradation)		CNC(=O)c1nnc(Nc2ccc(C(=O)NCCCNc3cccc4c3C(=O)N(C3CCC(=O)NC3=O)C4=O)cn2)cc1Nc1cccc(-c2ncn(C)n2)c1OC (stereo not drawn) [CPD-153, 6-((5-((3-((2-(2,6-Dioxopiperidin-3-yl)-1,3-dioxoisoindolin-4-yl)amino)propyl)carbamoyl)pyridin-2-yl)amino)-4-((2-methoxy-3-(1-methyl-1H-1,2,4-triazol-3-yl)phenyl)amino)-N-methylpyridazine-3-carboxamide]	
A (A: ≥60% TYK2 degradation)	A (A: ≥60% TYK2 degradation)	CNC(=O)c1nnc(Nc2ccc(CNC(=O)CCCCCCCCC(=O)N[C@H](C(=O)N3C[C@H](O)C[C@H]3C(=O)N[C@@H](C)c3ccc(-c4scnc4C)cc3)C(C)(C)C)cn2)cc1Nc1cccc(-c2ncn(C)n2)c1OC [CPD-133, N1-((S)-1-((2S,4R)-4-hydroxy-2-(((S)-1-(4-(4-methylthiazol-5-yl)phenyl)ethyl)carbamoyl)pyrrolidin-1-yl)-3,3-dimethyl-1-oxobutan-2-yl)-N10-((6-((5-((2-methoxy-3-(1-methyl-1H-1,2,4-triazol-3-yl)phenyl)amino)-6-(methylcarbamoyl)pyridazin-3-yl)amino)pyridin-3-yl)methyl)decanediamide]	
A (A: ≥60% TYK2 degradation)	C (C: ≤20% TYK2 degradation)	CNC(=O)c1nnc(Nc2ccc(C#CC3CCN(C(=O)CCCCC(=O)N[C@H](C(=O)N4C[C@H](O)C[C@H]4C(=O)N[C@@H](C)c4ccc(-c5scnc5C)cc4)C(C)(C)C)CC3)cn2)cc1Nc1cccc(-c2ncn(C)n2)c1OC [CPD-117, 6-((5-((1-(6-(((S)-1-((2S,4R)-4-Hydroxy-2-(((S)-1-(4-(4-methylthiazol-5-yl)phenyl)ethyl)carbamoyl)pyrrolidin-1-yl)-3,3-dimethyl-1-oxobutan-2-yl)amino)-6-oxohexanoyl)piperidin-4-yl)ethynyl)pyridin-2-yl)amino)-4-((2-methoxy-3-(1-methyl-1H-1,2,4-triazol-3-yl)phenyl)amino)-N-methylpyridazine-3-carboxamide]	
A (A: ≥60% TYK2 degradation)	C (C: ≤20% TYK2 degradation)	CNC(=O)c1nnc(Nc2ccc(C(=O)NCC(=O)N[C@H](C(=O)N3C[C@H](O)C[C@H]3C(=O)N[C@@H](C)c3ccc(-c4scnc4C)cc3)C(C)(C)C)cn2)cc1Nc1cccc(-c2ncn(C)n2)c1OC [CPD-137, 6-((5-((2-(((S)-1-((2S,4R)-4-Hydroxy-2-(((S)-1-(4-(4-methylthiazol-5-yl)phenyl)ethyl)carbamoyl)pyrrolidin-1-yl)-3,3-dimethyl-1-oxobutan-2-yl)amino)-2-oxoethyl)carbamoyl)pyridin-2-yl)amino)-4-((2-methoxy-3-(1-methyl-1H-1,2,4-triazol-3-yl)phenyl)amino)-N-methylpyridazine-3-carboxamide]	
C (C: ≤20% TYK2 degradation)		CNC(=O)c1nnc(Nc2ccc(C(=O)NCCOCCNc3ccc4c(c3)C(=O)N(C3CCC(=O)NC3=O)C4=O)cn2)cc1Nc1cccc(-c2ncn(C)n2)c1OC (stereo not drawn) [CPD-168, 6-((5-((2-(2-((2-(2,6-dioxopiperidin-3-yl)-1,3-dioxoisoindolin-5-yl)amino)ethoxy)ethyl)carbamoyl)pyridin-2-yl)amino)-4-((2-methoxy-3-(1-methyl-1H-1,2,4-triazol-3-yl)phenyl)amino)-N-methylpyridazine-3-carboxamide]	
C (C: ≤20% TYK2 degradation)		CNC(=O)c1nnc(Nc2ccc(C#CC3CN(C(=O)CCC(=O)N[C@H](C(=O)N4C[C@H](O)C[C@H]4C(=O)N[C@@H](C)c4ccc(-c5scnc5C)cc4)C(C)(C)C)C3)cn2)cc1Nc1cccc(-c2ncn(C)n2)c1OC [CPD-122, 6-((5-((1-(4-(((S)-1-((2S,4R)-4-Hydroxy-2-(((S)-1-(4-(4-methylthiazol-5-yl)phenyl)ethyl)carbamoyl)pyrrolidin-1-yl)-3,3-dimethyl-1-oxobutan-2-yl)amino)-4-oxobutanoyl)azetidin-3-yl)ethynyl)pyridin-2-yl)amino)-4-((2-methoxy-3-(1-methyl-1H-1,2,4-triazol-3-yl)phenyl)amino)-N-methylpyridazine-3-carboxamide]	
